Several values for one entry are separate records, joined by “and”; a condition that tells them apart may be missing. Equal values may be shown once.
Legend:
[1] = tested on: MMP-1
Description: FIG. 6. The expression of MMP-1 protein in BAL from smoke rabbits. […] SM-smoke without the duloxetine, SMD-smoke with duloxetine.
(§1) Rabbits were stratified into one of four groups (Unexposed, treated with vehicle, Smoke exposed, treated with vehicle, Unexposed, treated with Duloxetine and smoke exposed treated with Duloxetine. Animals are maintained on room air or smoke exposed for 16 weeks and then sacrificed. Lung lavage is taken, lungs are fixed and sectioned and protein homogenate from lungs frozen.

[2] = tested on: MMP-1; assay: MMP-1 expression in SAECs treated with CSE; assay type: cell-based
Method: FIG. 5. […] Data is presented as mean+standard error.
FIG. 8. […] SAEC treatment with 5% CSE, 10 nM Fluoxitine, 10 uM Fluoxitine, and combinations of 5% CSE and Fluoxitine. […] Data is presented as mean+standard error.
In the first experiment, SAE cells were treated with 5% CSE, 10 nM Fluoxitine, 10 uM Fluoxitine, and combinations of 5% CSE and Fluoxitine (FIG. 8). […] Data is presented as mean+standard error.

[3] = tested on: emphysema
Method: FIG. 7A. […] Duloxetine was administered 3 mg/day given once a day.
FIG. 7B. Morphometric analysis of rabbit study groups. […] NS-non-smoke without the duloxetine, NS-D-non-smoke with duloxetine, SM-smoke without the duloxetine, SM-D-smoke with duloxetine.
as §1

[4] = tested on: IRAK; assay: Western blot of IRAK phosphorylation in CSE treated SAE cells; assay type: cell-based
[5] = tested on: TLR-4 receptor; assay: TLR4 expression in CSE treated SAE cells; assay type: cell-based; conditions: SAEC, 5% CSE, 10 uM
[6] = tested on: PRAS40, BAD and GSK-3b; assay: Protein array analysis of cells treated with CSE; assay type: cell-based; conditions: CSE with Fluoxetine pretreatment vs CSE
Method: FIG. 10. Protein Array Analysis of Cells Treated with CSE compared to Cells Treated with CSE combined with Fluoxetine. […] The lines representing these three transcription factors, along with ERK 1/2, are labeled. Additionally, the lines compressed at the bottom of the figure represent the following transcription factors that were also tested: PC, NC, Stat1, Stat2, Akt (Thr308), Akt (Ser473), AMPKa, S6 Ribosomal Protein, mTOR, HSP27, p70 S6 Kinase, p53, p38, SAPK/JNK, PARP and Caspase-3.

[7] = Fluoxetine quantification in lung by chromatography after oral gavage or inhalation; assay type: in vivo; conditions: mice; for Concentration in lung sample: peak at retention time 17.08, replicates and average
Description: FIG. 13A. […] Mice were sacrificed, lungs lyophilized and protein homogenate prepared for chromatographic analysis.
FIG. 14A. […] Mice were sacrificed, lungs lyophilized and protein homogenate prepared for chromatographic analysis.
Mice were sacrificed, lungs lyophilized and protein homogenate prepared for chromatographic analysis.

SMILES | MMP-1 expression by ELISA of lung homogenate ([1]; rabbit cigarette smoke model, 20 weeks of smoke, compound in the last four weeks) | Expression of MMP-1 protein in BAL ([1]; smoke exposed rabbits) | MMP-1 expression ([2]; SAEC, 5% CSE, 10 uM Duloxetine, p<0.05) | MMP-1 expression ([2]; cell culture system, 10 nM) | Mean linear intercept (morphometric analysis) ([3]; SM vs NS, NS-D, SM-D groups, p=0.0495) | Development of emphysema (H&E of lungs) ([3]; smoke exposed rabbits, 3 mg/day once a day) | Phosphorylation of IRAK (Western blot) [4] | TLR-4 receptor expression [5] | BAD (protein array) [6] | GSK-3b (protein array) [6] | PRAS40 (protein array) [6] | MMP-1 induction by CSE ([2]; SAEC, 5% CSE, 10 nM and 10 uM Fluoxetine, p<0.05) | Concentration in lung sample ([7]; inhalation 10 mg/kg) | Concentration in lung sample ([7]; inhalation 10 mg/kg, mean) [µM] | Levels of Fluoxetine within the lung, inhalation vs oral ([7]; 10 mg/kg) | Detection of Fluoxetine in the lung ([7]; 10 mg/kg oral gavage and 10 mg/kg inhaled) | Concentration in lung sample ([7]; oral gavage 10 mg/kg, 10 mg/kg) | Concentration in lung sample ([7]; oral gavage 10 mg/kg, 10 mg/kg, mean) [µM]
CNCC[C@H](Oc1cccc2ccccc12)c1cccs1 [Duloxetine, (+)-(S)—N-Methyl-3-(naphthalen-1-yloxy)-3-(thiophen-2-yl) propan-1-amine] | block the MMP-1 expression | down regulated the expression of MMP-1 in BAL | decreased MMP-1 expression | block the MMP-1 expression | SM group had statistically significant increased mean linear intercept | development of emphysema was blocked |  |  |  |  |  |  |  |  |  |  |  | 
CNCCC(Oc1ccc(C(F)(F)F)cc1)c1ccccc1 (stereo not drawn) [Fluoxetine] |  |  |  |  |  |  | suppressed | down regulation of TLR-4 receptor expression | return to baseline | return to baseline | return to baseline | MMP-1 induction was attenuated | 25.81 µM and 26.2 µM and 26.45 µM | 26.16 | Inhalation resulted in higher levels | detection of Fluoxetine in the lung of mice | 3.712 µM and 3.673 µM and 3.98 µM | 3.788

From patent US20180028493A1, “INHIBITORS OF INDUCED MMP-1 PRODUCTION” (THE TRUSTEES OF COLUMBIA UNIVERSITY IN THE CITY OF NEW YORK, priority 2015, published 2018)
